Results taken from patent US5629430A, “Trifluoromethylpyrroloindolecarboxylic acid ester and process for production thereof” (Kyorin Pharmaceutical Co., Ltd., priority 1992, dated 1997).
In brackets after ≈: the same amount, converted by molar mass. Counter-ions that a name gives are not always drawn. Like-named read-outs stand apart in the source and are kept apart here.

Experiments:
[1] = test system: P388 mouse leukemia cells; assay: Activity against tumor cell growth (P388, MTT, 72 h); format: cell-based; conditions: P388 mouse leukemia cells, 72 h, 37° C., MTT; read-out: IC50 (50% growth inhibition concentration)
Protocol: Using a culture medium RPMI1640 supplemented with 10% inactivated bovine fetal serum, 2 mM glutamine, 100 μ/ml kanamycin sulfate, and 5 μM 2-hydroxyethyldisulfide (This culture medium is hereinafter referred to simply as "culture medium"), P388 mouse leukemia cells were diluted to a concentration of 1.5×10^5 cells/ml in the culture medium, and were placed in each well of 96-well multiplate in 60 μl portions. Separately, the test compound was dissolved in dimethylsulfoxide and was adequately diluted with the culture medium. The diluted solution containing test compound was added to the wells of the above plate respectively in 60 μl portions. Then the cells were incubated in a CO2 -incubator (5% CO2, 37° C.) for 72 hours.
The surviving cell numbers were measured according to the Mosmann's method (J. Immunol. Meth., 65 55-63, 1983) as follows. A 2.5 mg/ml solution of MTT (3-[4,5-dimethylthiazol-2-yl]-2,5-diphenyltetrazolium bromide) in Dulbecco's phosphate buffer solution (PBS) was prepared and added to each of the wells by 20 μl. The cells were further incubated for 3 hours. A 150 μl portion of 0.04N hydrochloric acid-isopropanol solution was added to each of the wells, and MTT-formazane formed was allowed to dissolve by pipetting. The absorbance of the solutions was measured at 540 nm taking the no-cell-containing [solution as the background. The 50% growth inhibition concentration (ICs50) was calculated from ratio of the absorbances of the treated samples to the absorbance of the no-medicine-treated sample, and from the concentration of the test compound.

Sarcoma-180 cells = assay: Antineoplastic activity, mice having Sarcoma-180 cells transplanted subcutaneously; format: in vivo, mouse (female, CDR strain); conditions: Mus musculus, Sarcoma-180, iv, 144 h, read-out: T/C (average tumor weight, dosed vs. solvent-dosed control); for response vs control in vivo at 0.125 mg/kg: i.v. 0.125 mg/kg single dose
Protocol: The test compound was dissolved in dimethylsulfoxide, and the solution was adequately diluted with 10% Emulfore EL620(produced by Rhone Poulenc Co.) to prepare the test compound solution. The antineoplastic activity was evaluated as below.
To the lateral region of a female mouse (CDR strain, 5 to 6 week age), 3.6×10^6 to 5×10^6 Sarcoma-180 cells were transplanted subcutaneously. Next day, the test medicine solution was injected into the tail vein in a single dose. Eight to twelve mice were employed for the solvent-dosed control group, and five mice were employed for the dosed group. Six days after the dosage, the tumor was cut out, and the weight thereof was measured. The antineoplastic effect was evaluated by the ratio (T/C) of the average tumor weight of the dosed group (T) to the average tumor weight of the solvent-dosed control group (C).

[2] = tumor weighed six days after dosage
[3] = i.v. 0.25 mg/kg single dose, tumor weighed six days after dosage

COC(=O)c1c(C(F)(F)F)[nH]c2c(O)cc3c(c12)C(CBr)CN3C(=O)c1cc2cc(NC(=O)c3cc4ccccc4cn3)ccc2[nH]1 (stereo not drawn) [Example 43, Methyl 1-bromomethyl-5-hydroxy-3-[5-[(isoquinolin-3-ylcarbonyl)amino]-1H-indol-2-ylcarbonyl]-7-trifluoromethyl-1,2,3,6-tetrahydropyrrolo[3,2-e]indole-8-carboxylate]
IC50 [1]: 0.1 ng/mL (≈ 0.142 nM)
response vs control in vivo at 0.125 mg/kg (Sarcoma-180 cells; [2]): 25%

COC(=O)c1c(C(F)(F)F)[nH]c2c(O)cc3c(c12)C(CBr)CN3C(=O)c1cc2cc(NC(=O)c3cc4ccccc4o3)ccc2[nH]1 (stereo not drawn) [Example 37, Methyl 3-[5-[(benzofuran-2-ylcarbonyl)amino]-1H-indol-2-ylcarbonyl]-1-bromomethyl-5-hydroxy-7-trifluoromethyl-1,2,3,6-tetrahydropyrrolo[3,2-e]indole-8-carboxylate]
IC50 [1]: 0.61 ng/mL (≈ 0.877 nM)
response vs control in vivo at 0.25 mg/kg (Sarcoma-180 cells; [3]): 24%

COC(=O)c1c(C(F)(F)F)[nH]c2c(O)cc3c(c12)C(CCl)CN3C(=O)c1cc2cc(NC(=O)c3ccc4ccccc4c3)ccc2[nH]1 (stereo not drawn) [Example 15, Methyl 1-chloromethyl-5-hydroxy-3-[5-[(naphthalene-3-ylcarbonyl)amino]-1H-indol-2-ylcarbonyl]-7-trifluoromethyl-1,2,3,6-tetrahydropyrrolo[3,2-e]indole-8-carboxylate]
IC50 [1]: 0.83 ng/mL (≈ 1.26 nM)
response vs control in vivo at 0.5 mg/kg (Sarcoma-180 cells; i.v. 0.5 mg/kg single dose, tumor weighed six days after dosage): 11%

COC(=O)c1c(C(F)(F)F)[nH]c2c(O)cc3c(c12)C(CCl)CN3C(=O)c1cc2cc(NC(=O)c3cc4cccc(OC)c4o3)ccc2[nH]1 (stereo not drawn) [Example 11, Methyl 1-chloromethyl-5-hydroxy-3-[5-[(7-methoxybenzofuran-2-ylcarbonyl)amino]-1H-indol-2-ylcarbonyl]-7-trifluoromethyl-1,2,3,6-tetrahydropyrrolo[3,2-e]indole-8-carboxylate]
IC50 [1]: 0.67 ng/mL (≈ 0.984 nM)
response vs control in vivo at 1 mg/kg (Sarcoma-180 cells; i.v. 1.0 mg/kg single dose, tumor weighed six days after dosage): 6%

COC(=O)c1c(C(F)(F)F)[nH]c2c(OC(=O)N3CCN(C)CC3)cc3c(c12)C(CCl)CN3C(=O)c1cc2cc(NC(=O)c3cc4ccccc4cn3)ccc2[nH]1 (stereo not drawn) [Example 52, Methyl 1-chloromethyl-5-(4-methylpiperazin-1-ylcarbonyl)oxy-3-[5-[(isoquinolin-3-ylcarbonyl)amino]-1H-indol-2-ylcarbonyl)-7-trifluoromethyl-1,2,3,6-tetrahydropyrrolo[3,2-e]indole-8-carboxylate]
response vs control in vivo at 1 mg/kg (Sarcoma-180 cells): 12%

COC(=O)c1c(C(F)(F)F)[nH]c2c(O)cc3c(c12)C(CCl)CN3C(=O)c1cc2cc(NC(=O)c3cc4c(OC)c(OC)c(OC)cc4nn3)ccc2[nH]1 (stereo not drawn) [Example 50, Methyl 1-chloromethyl-5-hydroxy-7-trifluoromethyl-3-[5-[(5,6,7-trimethoxycinnolin-3-ylcarbonyl)amino]-1H-indol-2-ylcarbonyl]-1,2,3,6-tetrahydropyrrolo[3,2-e]indole-8-carboxylate]
IC50 [1]: 4.5 ng/mL (≈ 5.98 nM)
response vs control in vivo at 4 mg/kg (Sarcoma-180 cells; i.v. 4.0 mg/kg single dose, tumor weighed six days after dosage): 15%

COC(=O)c1c(C(F)(F)F)[nH]c2c(OC(=O)N3CCN(C)CC3)cc3c(c12)C(CBr)CN3C(=O)c1cc2cc(NC(=O)c3cc4cc(OC)c(OC)c(OC)c4[nH]3)ccc2[nH]1 (stereo not drawn) [Example 53, Methyl 1-bromomethyl-5-(4-methylpiperazin-1-ylcarbonyl)oxy-7-trifluoromethyl-3-[5-[(5,6,7-trimethoxy1H-indol-2-ylcarbonyl)amino]1H-indol-2-ylcarbonyl]-1,2,3,6-tetrahydropyrrolo[3,2-e]indole-8-carboxylate]
response vs control in vivo at 4 mg/kg (Sarcoma-180 cells): 20%

COC(=O)c1c(C(F)(F)F)[nH]c2c1C13CC1CN(C(=O)c1cc4cc(NC(=O)c5cc6ccccc6cn5)ccc4[nH]1)C3=CC2=O (stereo not drawn) [Example 31, Methyl 3-[5-[(isoquinolin-3-ylcarbonyl)amino]-1H-indol-2-ylcarbonyl]-6-trifluoromethyl-1,2,8,8a-tetrahydrocyclopropa[c]pyrrolo[3,2-e]indol-4 (5H)-one-7-carboxylate]
IC50 [1]: 0.1 ng/mL (≈ 0.16 nM)
response vs control in vivo at 0.125 mg/kg (Sarcoma-180 cells; [2]): 24%

COC(=O)c1c(C(F)(F)F)[nH]c2c(OC(=O)N3CCN(C)CC3)cc3c(c12)C(CBr)CN3C(=O)c1cc2cc(NC(=O)c3cc4ccccc4cn3)ccc2[nH]1 (stereo not drawn) [Example 54, Methyl 1-bromomethyl-5-(4-methylpiperazin-1-ylcarbonyl)oxy-3-[5-[(isoquinolin-3-ylcarbonyl)amino]-1H-indol-2-ylcarbonyl]-7-trifluoromethyl-1,2,3,6-tetrahydropyrrolo[3,2-e]indole-8-carboxylate hydrochloride salt]
response vs control in vivo at 0.25 mg/kg (Sarcoma-180 cells): 15%

COC(=O)c1c(C(F)(F)F)[nH]c2c1C13CC1CN(C(=O)c1cc4cc(NC(=O)c5cc6c(OC)c(OC)c(OC)cc6cn5)ccc4[nH]1)C3=CC2=O (stereo not drawn) [Example 32, Methyl 6-trifluoromethyl-2-[5-[(5,6,7-trimethoxyisoquinolin-3-ylcarbonyl)amino]-1H-indol-2-ylcarbonyl]-1,2,8,8a-tetrahydrocyclopropa[c]pyrrolo[3,2e]indol-4 (5H)-one-7-carboxylate]
IC50 [1]: 0.09 ng/mL (≈ 0.126 nM)
response vs control in vivo at 0.125 mg/kg (Sarcoma-180 cells; [2]): 23%

COC(=O)c1c(C(F)(F)F)[nH]c2c1C13CC1CN(C(=O)c1cc4cc(NC(=O)c5cc6cc(OC)c(OC)c(OC)c6[nH]5)ccc4[nH]1)C3=CC2=O (stereo not drawn) [Example 27, Methyl 6-trifluoromethyl-2-[5-[(5,6,7-trimethoxy-1H indol-2-ylcarbonyl)amino]-1H-indol-2-ylcarbonyl]-1,2,8,8a-tetrahydrocyclopropa[c]pyrrolo[3,2-e]indole-4 (5H)-one-7-carboxylate]
IC50 [1]: 0.17 ng/mL (≈ 0.242 nM)
response vs control in vivo at 0.125 mg/kg (Sarcoma-180 cells; [2]): 19%

COC(=O)c1c(C(F)(F)F)[nH]c2c1C13CC1CN(C(=O)c1cc4cc(NC(=O)c5cc6c(OC)c(OC)c(OC)cc6[nH]5)ccc4[nH]1)C3=CC2=O (stereo not drawn) [Example 28, Methyl 6-trifluoromethyl-2-[5-[(4,5,6-trimethoxy-1-H-indol-2-ylcarbonyl)amino]-1H-indol-2-ylcarbonyl]-1,2,8,8a-tetrahydrocyclopropa[c]pyrrolo[3,2-e]indole-4(5H)-one-7-carboxylate]
IC50 [1]: 0.11 ng/mL (≈ 0.156 nM)
response vs control in vivo at 0.25 mg/kg (Sarcoma-180 cells; [3]): 28%

COC(=O)c1c(C(F)(F)F)[nH]c2c(O)cc3c(c12)C(CCl)CN3C(=O)c1cc2cc(NC(=O)c3cc4c(cn3)[nH]c3ccccc34)ccc2[nH]1 (stereo not drawn) [Example 19, Methyl 1-chloromethyl-5-hydroxy-3-[5-[(9H-pyrido[3,4-b]indol-3-ylcarbonyl)amino]-1H-indol-2ylcarbonyl]-7-trifluoromethyl-1,2,3,6-tetrahydropyrrolo[3,2e]indole-8-carboxylate]
IC50 [1]: 0.11 ng/mL (≈ 0.157 nM)
response vs control in vivo at 0.25 mg/kg (Sarcoma-180 cells; [3]): 22%

COC(=O)c1c(C(F)(F)F)[nH]c2c(OC(=O)N3CCN(C)CC3)cc3c(c12)C(CCl)CN3C(=O)c1cc2cc(NC(=O)c3cc4cc(OC)c(OC)c(OC)c4[nH]3)ccc2[nH]1 (stereo not drawn) [Example 51, Methyl 1-chloromethyl-5-(4-methylpiperazin-1-ylcarbonyl)oxy-7-trifluoromethyl-3-[5-[(5,6,7-trimethoxy1H-indol-2-ylcarbonyl)amino]-1H-indol-2-ylcarbonyl)-1,2,3,6tetrahydropyrrolo[3,2-e]indol, e-8-carboxylate]
response vs control in vivo at 4 mg/kg (Sarcoma-180 cells): 25%
